According to US5536714A, “Steroid derivatives for the treatment of prostatic hypertrophy their preparation and uses” (Sankyo Company, Limited, priority 1992, dated 1996):

test system: Rat 5α-Reductase; assay: Rat 5α-Reductase Inhibition Test; format: biochemical, rat (Sprague-Dawley, ventral prostate); conditions: final concentration of test compound 10^-8 M; 1 μM [14C]-testosterone; pH 6.5; 37° C., 15 to 30 minutes
Description: The tissue was then homogenized, first with a Polytron (trade mark) homogenizer (manufactured by Kinematica, GmbH) and then with a Teflon-glass homogenizer (Teflon is a trade mark). The suspension of homogenized prostate tissue was then centrifuged (140000×g, 60 minutes), and the sediment was suspended by adding approximately a 5-fold amount of the above buffer. The suspension was again centrifuged (140000×g, 60 minutes). […] This was adjusted to a protein concentration of 30 to 40 mg/ml by the addition of the buffer described above, and the preparation was then stored frozen at -80° C. Measurement of the amount of protein was performed using the Bio-Rad Protein Assay method, and bovine γ-globulin (Cohn Fraction II, manufactured by Sigma) was used for the protein reference standard. […] The mixture was then incubated at 37° C. for 15 to 30 minutes. Testing was also performed on a control group by adding solvent only. Following incubation, 2 ml of ethyl acetate, containing 10 μg each of testosterone, 5α-dihydrotestosterone and androstenedione, were added to stop the reaction. […] The steroid was dissolved in 40 μl of ethyl acetate and spotted onto a thin layer chromatographic plate (LK5DF silica plate, manufactured by Whatman). The plate was then developed twice at room temperature with a mixture of ethyl acetate and cyclohexane (1:1 by volume). The steroid fraction was identified with ultraviolet light and stained using an aqueous solution of 1% w/v […] and 10% w/v sulfuric acid. The radioactivity profiles of the thin layer chromatographic plate were measured using a bio-image analyzer (manufactured by Fuji Photo Film). Enzyme activity was expressed as the proportion of [^14 C]-5α-dihydrotestosterone that was converted from the [^14 C]-testosterone (conversion rate (%)) added. […]

Compound | Inhibitory Activity [%]
CC(C)(C)NC(=O)[C@H]1CC[C@H]2[C@@H]3CC=C4C=C(C(=O)O)CC[C@]4(C)[C@H]3CC[C@]12C [Compound B, 17β-t-butylcarbamoylandrosta-3,5-diene-3-carboxylic acid, reference compound] | 28.1
C[C@]12CC[C@H]3[C@@H](CC=C4C=C(C(=O)O)CC[C@@]43C)[C@@H]1CC[C@@H]2C(=O)NC(c1ccccc1)c1ccccc1 [Example 1, 17β-[N-(Diphenylmethyl)carbamoyl]androsta-3,5-diene-3-carboxylic acid] | 70.6
COc1ccc(C(C)(C)NC(=O)[C@H]2CC[C@H]3[C@@H]4CC=C5C=C(C(=O)O)CC[C@]5(C)[C@H]4CC[C@]23C)cc1 [Example 2, 17β-{N-[1-(4-Methoxyphenyl)-1-methylethyl]carbamoyl}androsta-3,5-diene-3-carboxylic acid] | 70.6
C[C@]12CC[C@H]3[C@@H](CC=C4C=C(C(=O)O)CC[C@@]43C)[C@@H]1CC[C@@H]2C(=O)NC(Cc1ccccc1)c1ccccc1 (stereo partly drawn) [Example 6, 17β-[N-(1,2-Diphenylethyl)carbamoyl]androsta-3,5-diene-3-carboxylic acid] | 89.4
COc1ccc(C(C)(C)NC(=O)[C@H]2CC[C@H]3[C@@H]4CC=C5C=C(C(=O)O)CC[C@]5(C)[C@H]4CC[C@]23C)cc1OC [Example 7, 17β-{N-[1-(3,4-Dimethoxyphenyl)-1-methylethyl]carbamoyl}androsta-3,5-diene-3-carboxylic acid] | 70.3
COc1cccc(C(C)(C)NC(=O)[C@H]2CC[C@H]3[C@@H]4CC=C5C=C(C(=O)O)CC[C@]5(C)[C@H]4CC[C@]23C)c1 [Example 9, 17β-{N-[1-(3-Methoxyphenyl)-1-methylethyl]carbamoyl}androsta-3,5-diene-3-carboxylic acid] | 77.9
Cc1ccc(C(C)(C)NC(=O)[C@H]2CC[C@H]3[C@@H]4CC=C5C=C(C(=O)O)CC[C@]5(C)[C@H]4CC[C@]23C)cc1 [Example 11, 17β-{N-[1-(4-Methylphenyl)-1-methylethyl]carbamoyl}androsta-3,5-diene-3-carboxylic acid] | 73.5
CCC(CC)(NC(=O)[C@H]1CC[C@H]2[C@@H]3CC=C4C=C(C(=O)O)CC[C@]4(C)[C@H]3CC[C@]12C)c1ccccc1 [Example 12, 17β-[N-(1-Ethyl-1-phenylpropyl)carbamoyl]androsta-3,5-diene-3-carboxylic acid] | 74.0
CCOc1ccc(C(C)(C)NC(=O)[C@H]2CC[C@H]3[C@@H]4CC=C5C=C(C(=O)O)CC[C@]5(C)[C@H]4CC[C@]23C)cc1 [Example 13, 17β-{N-[1-(4-Ethoxyphenyl)-1-methylethyl]carbamoyl}androsta-3,5-diene-3-carboxylic acid] | 84.3
C[C@]12CC[C@H]3[C@@H](CC=C4C=C(C(=O)O)CC[C@@]43C)[C@@H]1CC[C@@H]2C(=O)NC(c1ccccc1)c1ccc(O)cc1 (stereo partly drawn) [Example 15, 17β-[N-(4-Hydroxybenzhydryl)carbamoyl]androsta-3,5-diene-3-carboxylic acid] | 73.3
C[C@]12CC[C@H]3[C@@H](CC=C4C=C(C(=O)O)CC[C@@]43C)[C@@H]1CC[C@@H]2C(=O)NC(c1ccc(F)cc1)c1ccc(F)cc1 [Example 16, 17β-[N-(4,4'-Difluorobenzhydryl)carbamoyl]androsta-3,5-diene-3-carboxylic acid] | 81.7
COc1ccc(C(NC(=O)[C@H]2CC[C@H]3[C@@H]4CC=C5C=C(C(=O)O)CC[C@]5(C)[C@H]4CC[C@]23C)c2ccccc2)cc1 (stereo partly drawn) [Example 21, 17β-[N-(4-Methoxybenzhydryl)carbamoyl]androsta-3,5-diene-3-carboxylic acid] | 84.9
C[C@]12CC[C@H]3[C@@H](CC=C4C=C(C(=O)O)CC[C@@]43C)[C@@H]1CC[C@@H]2C(=O)N(Cc1ccccc1)Cc1ccccc1 [Example 25, 17β-(N,N-Dibenzylcarbamoyl)androsta-3,5-diene-3-carboxylic acid] | 79.3
